Results published in US11247965B2 (VenatoRx Pharmaceuticals, Inc., priority 2017, dated 2022).
pEC50: −log10 of the molar value.

Legend:
[1] = system: HBV replication in HepAD38 cells; assay: Anti-HBV activity in HepAD38 cells, extracellular HBV DNA by QPCR; format: cell-based, HBV (genotype D, serotype ayw); conditions: Hepatitis B virus, HePAD38, 168 h, read-out: Anti-HBV EC50, HepAD38 cells, extracellular HBV DNA by QPCR, 7 days of incubation
Summary of the method: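 Seven-day compound exposure (30 μM down to 10 nM, half-log steps) after tetracycline withdrawal induced HBV replication in HepAD38 cells. Extracellular viral DNA measured by QPCR (copies/mL via standard curve), normalised to DMSO wells; EC50 from 4-parameter non-linear regression.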

[2] = In vitro cytotoxicity, MTT cell viability assay in HepG2 cells; format: cell-based; conditions: human, Cytotoxicity CC50
Summary of the method: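 Using MTT conversion as the viability measure, HepG2 cells were incubated with compounds for 7 days (30 μM to 1.0 nM). Absorbance at 492 nm was normalized to vehicle and fitted to give CC50.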

Compound | pEC50 [1] | CC50 at 7 days [2]
Cc1cc(NC(=O)c2ccc(F)c(C(F)(F)C(=O)N3CCC(O)C(F)(F)C3)c2)ccc1F (centres unmarked) [Example 77, 3-(2-(3,3-difluoro-4-hydroxypiperidin-1-yl)-1,1-difluoro-2-oxoethyl)-4-fluoro-N-(4-fluoro-3-methylphenyl)benzamide] | > 5.30 | 5 to 30 µM
Cc1cc(NC(=O)c2ccnc(C(F)(F)C(=O)N3CCC(O)CC3)c2)ccc1F [Example 243, 2-(1,1-difluoro-2-(4-hydroxypiperidin-1-yl)-2-oxoethyl)-N-(4-fluoro-3-methylphenyl)isonicotinamide] | 4.52 to 5.30 | > 30 µM
Cn1ccc(C(=O)Nc2ccc(F)c(Cl)c2)c1C(F)(F)C(=O)N[C@@H]1CCOC1 [Example 143, (R)-N-(3-chloro-4-fluorophenyl)-2-(1,1-difluoro-2-oxo-2-((tetrahydrofuran-3-yl)amino)ethyl)-1-methyl-1H-pyrrole-3-carboxamide] | 4.52 to 5.30 | > 30 µM
C=Cc1ccc(C(=O)Nc2ccc(F)c(C)c2)cc1C(F)(F)C(=O)N1CCC(O)CC1 [Example 115, 3-(1,1-difluoro-2-(4-hydroxypiperidin-1-yl)-2-oxoethyl)-N-(4-fluoro-3-methylphenyl)-4-vinylbenzamide] | > 5.30 | > 30 µM
Cc1cc(NC(=O)c2ccc(F)c(C(F)(F)C(=O)N3CC[C@H](O)C[C@H]3C)c2)ccc1F [Example 255] | > 5.30 | 5 to 30 µM
Cc1cc(NC(=O)c2ccc(F)c(C(F)(F)C(=O)N3C4CCCC3c3sc(N)nc3C4)c2)ccc1F (centres unmarked) [Example 342, 3-(2-(2-amino-4,5,6,7,8,9-hexahydro-5,9-epiminocycloocta[d]thiazol-10-yl)-1,1-difluoro-2-oxoethyl)-4-fluoro-N-(4-fluoro-3-methylphenyl)benzamide] | > 5.30 | > 30 µM
Cc1cc(NC(=O)c2ccc(F)c(C(F)(F)C(=O)N3[C@@H]4COC[C@H]3CN(C(=O)OC(C)(C)C)C4)c2)ccc1F [Example 209, tert-butyl (1R,5S)-9-(2,2-difluoro-2-(2-fluoro-5-((4-fluoro-3-methylphenyl)carbamoyl)phenyl)acetyl)-3-oxa-7,9-diazabicyclo[3.3.1]nonane-7-carboxylate] | > 5.30 | 5 to 30 µM
CC(=O)N[C@H]1CCN(C(=O)C(F)(F)c2cc(C(=O)Nc3ccc(F)c(C)c3)ccc2F)CC1(C)C [Example 327, (S)-3-(2-(4-acetamido-3,3-dimethylpiperidin-1-yl)-1,1-difluoro-2-oxoethyl)-4-fluoro-N-(4-fluoro-3-methylphenyl)benzamide] | > 5.30 | > 30 µM
Cc1cc(NC(=O)c2ccc(Cl)c(C(F)(F)C(=O)N3[C@@H]4CC[C@H]3C[C@H](O)C4)c2)ccc1F [Example 221, 4-chloro-3-(1,1-difluoro-2-((1R,3s,5S)-3-hydroxy-8-azabicyclo[3.2.1]octan-8-yl)-2-oxoethyl)-N-(4-fluoro-3-methylphenyl)benzamide] | > 5.30 | 5 to 30 µM
Cc1cc(NC(=O)c2ccc(F)c(C(F)(F)C(=O)N3[C@@H]4CCC[C@H]3CC(O)C4)c2)ccc1F (stereo partly drawn) [Example 202, 3-(1,1-difluoro-2-((1R,5S)-3-hydroxy-9-azabicyclo[3.3.1]nonan-9-yl)-2-oxoethyl)-4-fluoro-N-(4-fluoro-3-methylphenyl)benzamide] | > 5.30 | 5 to 30 µM
Cc1cc(NC(=O)c2ccc(F)c(C(F)(F)C(=O)N3[C@@H]4CC[C@H]3CC(O)(CN)C4)c2)ccc1F (stereo partly drawn) [Example 276, 3-(2-((1R,5S)-3-(aminomethyl)-3-hydroxy-8-azabicyclo[3.2.1]octan-8-yl)-1,1-difluoro-2-oxoethyl)-4-fluoro-N-(4-fluoro-3-methylphenyl)benzamide] | > 5.30 | 5 to 30 µM
Cc1cc(NC(=O)c2cc(C(F)(F)C(=O)N3CCC(O)CC3)n(C)c2)ccc1F [Example 97, 5-(1,1-difluoro-2-(4-hydroxypiperidin-1-yl)-2-oxoethyl)-N-(4-fluoro-3-methylphenyl)-1-methyl-1H-pyrrole-3-carboxamide] | > 5.30 | > 30 µM
O=C(Nc1ccc(F)c(F)c1)c1ccc(F)c(C(F)(F)C(=O)Nc2ccc(F)cn2)c1 [Example 22, 3-(1,1-difluoro-2-((5-fluoropyridin-2-yl)amino)-2-oxoethyl)-N-(3,4-difluorophenyl)-4-fluorobenzamide] | 4.52 to 5.30 | > 30 µM
Cc1cc(NC(=O)c2ccc(C(F)(F)C(=O)N3CCC(O)CC3)s2)ccc1F [Example 63, 5-(1,1-difluoro-2-(4-hydroxypiperidin-1-yl)-2-oxoethyl)-N-(4-fluoro-3-methylphenyl)thiophene-2-carboxamide] | < 4.52 | 5 to 30 µM
Cc1cc(NC(=O)c2cccc(C(F)(F)C(=O)N3C4CC[C@@H]3C[C@@H](O)C4)c2F)ccc1F [Example 256, 3-(1,1-difluoro-2-((1R,3s,5S)-3-hydroxy-8-azabicyclo[3.2.1]octan-8-yl)-2-oxoethyl)-2-fluoro-N-(4-fluoro-3-methylphenyl)benzamide] | > 5.30 | 5 to 30 µM
Cc1cc(NC(=O)c2ccc(F)c(C(F)(F)C(=O)N3[C@@H]4CCC[C@H]3[C@H](O)C4)c2)ccc1F [Example 215, 3-(1,1-difluoro-2-((1R,5S,6R)-6-hydroxy-8-azabicyclo[3.2.1]octan-8-yl)-2-oxoethyl)-4-fluoro-N-(4-fluoro-3-methylphenyl)benzamide] | > 5.30 | 5 to 30 µM
Cc1cc(NC(=O)c2ccc(F)c(C(F)(F)C(=O)NC(C)(C)CO)c2)ccc1F [Example 28, 3-(1,1-difluoro-2-((1-hydroxy-2-methylpropan-2-yl)amino)-2-oxoethyl)-4-fluoro-N-(4-fluoro-3-methylphenyl)benzamide] | 4.52 to 5.30 | > 30 µM
Cc1cc(NC(=O)c2ccc(F)c(C(F)(F)C(=O)N3C[C@@H](C)N[C@@H](C)C3)c2)ccc1F [Example 296, 3-(2-((3R,5S)-3,5-dimethylpiperazin-1-yl)-1,1-difluoro-2-oxoethyl)-4-fluoro-N-(4-fluoro-3-methylphenyl)benzamide] | > 5.30 | 5 to 30 µM
Cc1cc(NC(=O)c2ccc(Cl)c(C(F)(F)C(=O)N3CC[C@@H](O)[C@@H](O)C3)c2)ccc1F [Example 57, 4-chloro-3-(2-((3S,4R)-3,4-dihydroxypiperidin-1-yl)-1,1-difluoro-2-oxoethyl)-N-(4-fluoro-3-methylphenyl)benzamide] | > 5.30 | > 30 µM
Cc1cc(NC(=O)c2ccc(F)c(C(F)(F)C(=O)N3CCc4[nH]cnc4C3)c2)ccc1F [Example 238, 3-(1,1-difluoro-2-oxo-2-(1,4,6,7-tetrahydro-5H-imidazo[4,5-c]pyridin-5-yl)ethyl)-4-fluoro-N-(4-fluoro-3-methylphenyl)benzamide] | > 5.30 | > 30 µM
O=C(Nc1ccc(F)c(F)c1)c1ccc(F)c(C(F)(F)C(=O)N2CCCCC2)c1 [Example 11, 3-(1,1-difluoro-2-oxo-2-(piperidin-1-yl)ethyl)-N-(3,4-difluorophenyl)-4-fluorobenzamide] | 4.52 to 5.30 | 5 to 30 µM
O=C(Nc1cc(F)c(F)c(F)c1)c1ccc(F)c(C(F)(F)C(=O)N2CCC(O)(CO)CC2)c1 [Example 174, 3-(1,1-difluoro-2-(4-hydroxy-4-(hydroxymethyl)piperidin-1-yl)-2-oxoethyl)-4-fluoro-N-(3,4,5-trifluorophenyl)benzamide] | > 5.30 | 5 to 30 µM
Cc1cc(NC(=O)c2ccc(F)c(C(F)(F)C(=O)N3CCC(O)C(F)C3)c2)ccc1F (centres unmarked) [Example 162, 3-(1,1-difluoro-2-(3-fluoro-4-hydroxypiperidin-1-yl)-2-oxoethyl)-4-fluoro-N-(4-fluoro-3-methylphenyl)benzamide] | > 5.30 | 5 to 30 µM
COc1ccccc1NC(=O)C(F)(F)c1cc(C(=O)Nc2ccc(F)c(F)c2)ccc1F [Example 21, 3-(1,1-difluoro-2-((2-methoxyphenyl)amino)-2-oxoethyl)-N-(3,4-difluorophenyl)-4-fluorobenzamide] | 4.52 to 5.30 | 5 to 30 µM
Cc1cc(NC(=O)c2ccc([N+](=O)[O-])c(C(F)(F)C(=O)N3CCC(O)CC3)c2)ccc1F [Example 298, 3-(1,1-difluoro-2-(4-hydroxypiperidin-1-yl)-2-oxoethyl)-N-(4-fluoro-3-methylphenyl)-4-nitrobenzamide] | > 5.30 | 5 to 30 µM
Cc1cc(NC(=O)c2ccc(F)c(C(F)(F)C(=O)N3[C@@H]4CCC[C@H]3C[C@H](NS(C)(=O)=O)C4)c2)ccc1F [Example 338, 3-(1,1-difluoro-2-((1R,3s,5S)-3-(methylsulfonamido)-9-azabicyclo[3.3.1]nonan-9-yl)-2-oxoethyl)-4-fluoro-N-(4-fluoro-3-methylphenyl)benzamide] | > 5.30 | 5 to 30 µM
O=C(Nc1ccc(F)c(Br)c1)c1ccc(F)c(C(F)(F)C(=O)N2CCC(O)CC2)c1 [Example 87, N-(3-bromo-4-fluorophenyl)-3-(1,1-difluoro-2-(4-hydroxypiperidin-1-yl)-2-oxoethyl)-4-fluorobenzamide] | > 5.30 | 5 to 30 µM
Cc1cc(NC(=O)c2ccc(F)c(C(F)(F)C(=O)N3CCC(F)(F)CC3)c2)ccc1F [Example 278, 3-(2-(4,4-difluoropiperidin-1-yl)-1,1-difluoro-2-oxoethyl)-4-fluoro-N-(4-fluoro-3-methylphenyl)benzamide] | 4.52 to 5.30 | > 30 µM
